# pIC50: −log10 of the molar value.
# Tests used:
# [1] = target: Epidermal growth factor receptor (Homo sapiens, UniProt P00533); test: Inhibition of Epidermal growth factor receptor autophosphorylation in A431 cell membranes
# Insulin receptor = Insulin receptor (Homo sapiens, UniProt P06213); test: Inhibition of insulin receptor autophosphorylation
# Chain of Insulin receptor (P06213 28-758 limits assumed): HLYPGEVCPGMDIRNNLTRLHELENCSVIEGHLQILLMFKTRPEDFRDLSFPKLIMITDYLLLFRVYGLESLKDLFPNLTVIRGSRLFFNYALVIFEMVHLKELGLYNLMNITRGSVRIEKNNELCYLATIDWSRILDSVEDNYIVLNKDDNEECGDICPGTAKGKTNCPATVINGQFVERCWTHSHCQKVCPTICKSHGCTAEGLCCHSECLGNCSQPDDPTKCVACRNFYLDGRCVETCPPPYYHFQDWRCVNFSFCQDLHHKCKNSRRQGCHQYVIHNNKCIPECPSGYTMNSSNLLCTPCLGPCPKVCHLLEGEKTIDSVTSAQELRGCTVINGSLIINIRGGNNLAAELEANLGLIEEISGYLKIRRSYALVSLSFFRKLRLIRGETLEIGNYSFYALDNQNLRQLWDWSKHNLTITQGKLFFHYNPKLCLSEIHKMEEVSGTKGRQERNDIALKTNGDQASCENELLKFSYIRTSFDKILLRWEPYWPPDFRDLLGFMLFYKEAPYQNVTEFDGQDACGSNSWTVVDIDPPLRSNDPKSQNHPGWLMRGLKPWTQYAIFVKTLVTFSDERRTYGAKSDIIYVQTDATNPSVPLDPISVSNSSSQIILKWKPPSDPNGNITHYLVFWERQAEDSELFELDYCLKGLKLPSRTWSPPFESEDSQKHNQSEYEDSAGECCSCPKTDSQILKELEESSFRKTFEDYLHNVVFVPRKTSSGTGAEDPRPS
# Chain of Insulin receptor (P06213 763-1382 limits assumed): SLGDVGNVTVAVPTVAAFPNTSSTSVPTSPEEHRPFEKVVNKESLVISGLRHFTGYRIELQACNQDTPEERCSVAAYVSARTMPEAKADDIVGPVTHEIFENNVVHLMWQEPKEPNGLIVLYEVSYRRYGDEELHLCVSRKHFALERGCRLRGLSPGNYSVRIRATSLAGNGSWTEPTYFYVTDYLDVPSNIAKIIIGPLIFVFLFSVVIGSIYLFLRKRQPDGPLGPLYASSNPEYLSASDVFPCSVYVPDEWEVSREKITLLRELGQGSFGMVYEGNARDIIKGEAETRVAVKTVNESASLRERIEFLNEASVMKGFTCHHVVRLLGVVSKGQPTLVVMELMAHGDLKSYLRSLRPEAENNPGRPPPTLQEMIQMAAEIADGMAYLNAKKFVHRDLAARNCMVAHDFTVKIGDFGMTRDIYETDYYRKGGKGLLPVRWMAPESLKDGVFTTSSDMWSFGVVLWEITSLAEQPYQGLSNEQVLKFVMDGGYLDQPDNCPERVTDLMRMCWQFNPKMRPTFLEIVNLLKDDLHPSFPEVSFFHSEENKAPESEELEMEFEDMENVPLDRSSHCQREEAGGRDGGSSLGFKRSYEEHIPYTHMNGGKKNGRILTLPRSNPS
# Chain of Epidermal growth factor receptor (P00533 whole entry): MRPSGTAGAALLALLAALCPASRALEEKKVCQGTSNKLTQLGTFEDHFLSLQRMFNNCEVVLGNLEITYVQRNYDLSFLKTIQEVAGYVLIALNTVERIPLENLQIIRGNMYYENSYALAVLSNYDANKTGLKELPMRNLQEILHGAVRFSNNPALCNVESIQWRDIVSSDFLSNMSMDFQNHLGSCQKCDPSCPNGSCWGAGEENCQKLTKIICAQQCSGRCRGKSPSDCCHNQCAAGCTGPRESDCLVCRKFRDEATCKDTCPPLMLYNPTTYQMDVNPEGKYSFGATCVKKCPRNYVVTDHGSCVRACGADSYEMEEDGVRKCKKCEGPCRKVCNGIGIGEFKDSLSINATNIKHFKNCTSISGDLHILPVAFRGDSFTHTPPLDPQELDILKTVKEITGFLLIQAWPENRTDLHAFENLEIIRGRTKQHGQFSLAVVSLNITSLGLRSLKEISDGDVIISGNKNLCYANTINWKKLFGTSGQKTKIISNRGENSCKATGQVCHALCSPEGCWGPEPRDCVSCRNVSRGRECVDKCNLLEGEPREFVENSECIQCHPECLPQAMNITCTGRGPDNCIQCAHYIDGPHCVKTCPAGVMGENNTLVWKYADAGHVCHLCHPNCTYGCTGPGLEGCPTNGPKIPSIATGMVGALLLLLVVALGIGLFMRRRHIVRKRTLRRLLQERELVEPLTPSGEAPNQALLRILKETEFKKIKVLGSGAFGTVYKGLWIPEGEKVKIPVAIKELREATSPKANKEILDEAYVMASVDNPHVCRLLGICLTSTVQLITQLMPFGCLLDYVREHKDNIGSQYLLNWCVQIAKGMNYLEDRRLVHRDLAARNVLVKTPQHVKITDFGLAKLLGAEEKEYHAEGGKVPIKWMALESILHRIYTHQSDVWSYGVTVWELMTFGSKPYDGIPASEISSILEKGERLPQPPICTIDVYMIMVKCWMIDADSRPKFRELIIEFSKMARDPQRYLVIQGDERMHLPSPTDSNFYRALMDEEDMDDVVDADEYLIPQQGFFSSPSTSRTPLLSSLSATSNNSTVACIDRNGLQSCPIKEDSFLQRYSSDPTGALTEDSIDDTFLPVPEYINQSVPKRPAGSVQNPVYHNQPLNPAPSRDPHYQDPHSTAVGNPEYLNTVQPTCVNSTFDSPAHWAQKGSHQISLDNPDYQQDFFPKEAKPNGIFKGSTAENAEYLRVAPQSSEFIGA
compound,measurement,setting,value
O=P(O)(O)C(O)c1ccc2ccccc2c1 (configuration not stated),pIC50,[1],3.60
same,pIC50,Insulin receptor,3.70
